Laboratory results taken from US20130029970A1 (priority 2009, published 2013).
pEC50, pIC50: −log10 of the molar value.

What was measured:
[1] = biological target: T1, recombinant human cannabinoid receptor CB1 (Homo sapiens, UniProt P21554); assay: Cannabinoid receptor radioligand binding assay, [3H]-CP 55,940 displacement, hCB1
T1 construct: (cDNA clone) CNR01L000
In short: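 Displacement of 0.5 nM [3H]-CP 55,940 (1 μM unlabeled CP 55,940 for nonspecific) measured by filtration and scintillation counting. Binding ran 90 min at room temperature in pH 7.5 Tris buffer with 0.1% fatty-acid-free BSA, using recombinant hCB1 HEK-293 membranes at 2-10 μg protein.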

human CB1 receptors = biological target: T2, human CB1 receptors (Homo sapiens, UniProt P21554); assay: cAMP assay in HEK-293 cells, hCB1 agonist; assay type: cell-based; conditions: inhibition of forskolin-stimulated cAMP, HEK-293 cells; for pEC50: read-out: hCB1 EC50 (cAMP ag)
T2 construct: (cDNA clone) CNR01L000
T2 sequence (P21554 whole entry): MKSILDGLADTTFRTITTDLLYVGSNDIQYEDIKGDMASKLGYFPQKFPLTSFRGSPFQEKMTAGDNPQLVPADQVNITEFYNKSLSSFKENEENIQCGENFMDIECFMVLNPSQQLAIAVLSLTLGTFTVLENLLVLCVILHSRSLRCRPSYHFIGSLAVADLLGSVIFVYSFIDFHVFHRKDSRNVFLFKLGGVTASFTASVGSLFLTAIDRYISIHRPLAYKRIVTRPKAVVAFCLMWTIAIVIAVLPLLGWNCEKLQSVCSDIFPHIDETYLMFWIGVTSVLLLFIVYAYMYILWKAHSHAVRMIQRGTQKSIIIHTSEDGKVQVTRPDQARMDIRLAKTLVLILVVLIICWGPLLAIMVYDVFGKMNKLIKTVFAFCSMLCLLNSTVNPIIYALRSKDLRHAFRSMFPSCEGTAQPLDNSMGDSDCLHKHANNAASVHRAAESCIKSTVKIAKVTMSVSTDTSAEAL
In short: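 Agonist EC50 taken as concentration giving half inhibition of forskolin-driven cAMP, normalized to forskolin maximum, from sigmoidal curves. Whole HEK-293 cells stably expressing hCB1, in HEPES/BSA-containing HBSS, exposed 30 min at 37° C. to compound with forskolin (90 uM in 3× dilution); cAMP read after lysis.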

T1 sequence (P21554 whole entry): as above

Compound | pIC50 [1] | pEC50 (human CB1 receptors) | hCB1 EC50 (cAMP ag, nM) (human CB1 receptors)
COc1ccc(C(=O)c2cc3cc(C)n(CCN4CCOCC4)c3s2)c(C)c1 [Compound 88, (4-Methoxy-2-methylphenyl)(5-methyl-6-(2-morpholinoethyl)-6H-thieno[2,3-b]pyrrol-2-yl)methanone] | 6.00 to 7.00 | 6.00 to 7.00 | 
CCOc1ccc(C(=O)c2cc3cc(C)n(CCN4CCOCC4)c3s2)c(F)c1 [Compound 89, (4-Ethoxy-2-fluorophenyl)(5-methyl-6-(2-morpholinoethyl)-6H-thieno[2,3-b]pyrrol-2-yl)methanone] | 5.00 to 6.00 | 5.00 to 6.00 | 
COc1ccc(C(=O)c2cc3cc(C)n(CCN4CCCCC4)c3s2)c(Cl)c1 [Compound 90, (2-Chloro-4-methoxyphenyl)(5-methyl-6-(2-(piperidin-1-yl)ethyl)-6H-thieno[2,3-b]pyrrol-2-yl)methanone] | 6.00 to 7.00 | 6.00 to 7.00 | 
COc1ccc(C(=O)c2cc3cc(C)n(CCN4CCCC4)c3s2)c(F)c1 [Compound 92, (2-Fluoro-4-methoxyphenyl)(5-methyl-6-(2-(pyrrolidin-1-yl)ethyl)-6H-thieno[2,3-b]pyrrol-2-yl)methanone] | 5.00 to 6.00 | 5.00 to 6.00 | 
COc1ccc(C(=O)c2cc3cc(C)n(CCN4CCCC4)c3s2)c(Cl)c1 [Compound 93, (2-Chloro-4-methoxyphenyl)(5-methyl-6-(2-(pyrrolidin-1-yl)ethyl)-6H-thieno[2,3-b]pyrrol-2-yl)methanone] | 6.00 to 7.00 | 5.00 to 6.00 | 
COc1ccc(C(=O)c2cc3cc(C)n(CCCNS(C)(=O)=O)c3s2)c(C)c1 [Compound 96, N-(3-(2-(4-Methoxy-2-methylbenzoyl)-5-methyl-6H-thieno[2,3-b]pyrrol-6-yl)propyl)methanesulfonamide] | 5.00 to 6.00 |  | NS (NS means “Not Significant,” which means less than 30% agonist activity when compared to the positive control.)
COc1ccc(C(=O)c2cc3cc(C)n(CCN4CCCCC4)c3s2)c(F)c1 [Compound 98, (2-Fluoro-4-methoxyphenyl)(5-methyl-6-(2-(piperidin-1-yl)ethyl)-6H-thieno[2,3-b]pyrrol-2-yl)methanone] | 5.00 to 6.00 |  | NS (NS means “Not Significant,” which means less than 30% agonist activity when compared to the positive control.)
COc1ccc(C(=O)c2cc3cc(C)n(CCN4CCCCC4)c3s2)c(O)c1 [Compound 99, (2-Hydroxy-4-methoxyphenyl)(5-methyl-6-(2-(piperidin-1-yl)ethyl)-6H-thieno[2,3-b]pyrrol-2-yl)methanone] | 5.00 to 6.00 |  | NS (NS means “Not Significant,” which means less than 30% agonist activity when compared to the positive control.)
COc1ccc(C(O)c2cc3cc(C)n(CCN4CCOCC4)c3s2)cc1 (stereo not drawn) [Compound 100, (4-Methoxyphenyl)(5-methyl-6-(2-morpholinoethyl)-6H-thieno[2,3-b]pyrrol-2-yl)methanol] | 5.00 to 6.00 |  | NS (NS means “Not Significant,” which means less than 30% agonist activity when compared to the positive control.)
COc1ccc(C(C)(O)c2cc3cc(C)n(CCN4CCOCC4)c3s2)cc1 (stereo not drawn) [Compound 101, 1-(4-methoxyphenyl)-1-(5-methyl-6-(2-morpholinoethyl)-6H-thieno[2,3-b]pyrrol-2-yl)ethanol] | 5.00 to 6.00 |  | NS (NS means “Not Significant,” which means less than 30% agonist activity when compared to the positive control.)
COc1ccc(C(=O)c2cc3cc(C)n(CCCCNS(C)(=O)=O)c3s2)cc1 [Compound 102, N-(4-(2-(4-Methoxybenzoyl)-5-methyl-6H-thieno[2,3-b]pyrrol-6-yl)butyl)methanesulfonamide] | 5.00 to 6.00 |  | NS (NS means “Not Significant,” which means less than 30% agonist activity when compared to the positive control.)
COc1ccc(Cn2c(C)cc3cc(C(=O)c4ccc(OC)cc4)sc32)cc1 [Compound 103, (6-(4-Methoxybenzyl)-5-methyl-6H-thieno[2,3-b]pyrrol-2-yl)(4-methoxyphenyl)methanone] | 5.00 to 6.00 |  | NS (NS means “Not Significant,” which means less than 30% agonist activity when compared to the positive control.)
COc1ccc(C(=S)c2cc3cc(C)n(CCN4CCOCC4)c3s2)cc1 [Compound 104, (4-methoxyphenyl)(5-methyl-6-(2-morpholinoethyl)-6H-thieno[2,3-b]pyrrol-2-yl)methanethione] | 5.00 to 6.00 |  | NS (NS means “Not Significant,” which means less than 30% agonist activity when compared to the positive control.)
COc1ccc(C(=O)c2cc3cc(C)n(CCCNS(N)(=O)=O)c3s2)cc1 [Compound 105] | < 5.00 |  | NS (NS means “Not Significant,” which means less than 30% agonist activity when compared to the positive control.)
Cc1cc2cc(C(=O)c3ccc4c(c3)OCO4)sc2n1CCN1CCOCC1 [Compound 106, Benzo[d][1,3]dioxol-5-yl(5-methyl-6-(2-morpholinoethyl)-6H-thieno[2,3-b]pyrrol-2-yl)methanone] | 5.00 to 6.00 |  | NS (NS means “Not Significant,” which means less than 30% agonist activity when compared to the positive control.)
COc1ccc(C(=O)c2cc3cc(C)n(CCCNC(C)(C)C)c3s2)cc1 [Compound 108, (6-(3-(tert-Butylamino)propyl)-5-methyl-6H-thieno[2,3-b]pyrrol-2-yl)(4-methoxyphenyl)methanone] | < 5.00 |  | NS (NS means “Not Significant,” which means less than 30% agonist activity when compared to the positive control.)
COc1ccc(C(=O)c2cc3cc(C)n(CCCNS(C)(=O)=O)c3s2)cn1 [Compound 109, N-(3-(2-(6-Methoxynicotinoyl)-5-methyl-6H-thieno[2,3-b]pyrrol-6-yl)propyl)methanesulfonamide] | < 5.00 |  | NS (NS means “Not Significant,” which means less than 30% agonist activity when compared to the positive control.)
COc1ccc(C(=O)c2cc3cc(C)n(CCN4CCSCC4)c3s2)cc1 [Compound 110, (4-Methoxyphenyl)(5-methyl-6-(2-thiomorpholinoethyl)-6H-thieno[2,3-b]pyrrol-2-yl)methanone] | 5.00 to 6.00 | 5.00 to 6.00 | 
Cc1cc2cc(C(=O)c3ccc(OC(C)C)cc3)sc2n1CCN1CCOCC1 [Compound 111, (4-Isopropoxyphenyl)(5-methyl-6-(2-morpholinoethyl)-6H-thieno[2,3-b]pyrrol-2-yl)methanone] | 5.00 to 6.00 |  | NS (NS means “Not Significant,” which means less than 30% agonist activity when compared to the positive control.)
COc1ccc(C(=O)c2cc3cc(C)n(Cc4ccncc4)c3s2)cc1 [Compound 112, (4-Methoxyphenyl)(5-methyl-6-(pyridin-4-ylmethyl)-6H-thieno[2,3-b]pyrrol-2-yl)methanone] | 5.00 to 6.00 |  | NS (NS means “Not Significant,” which means less than 30% agonist activity when compared to the positive control.)
COc1ccc(C(=O)c2cc3cc(C)n(S(=O)(=O)N(C)C)c3s2)cn1 [Compound 113, 2-(6-Methoxynicotinoyl)-N,N,5-trimethyl-6H-thieno[2,3-b]pyrrole-6-sulfonamide] | 5.00 to 6.00 |  | NS (NS means “Not Significant,” which means less than 30% agonist activity when compared to the positive control.)
